# Test results as given in PMC3486420, “In Vitro and In Vivo Characterizations of Chiglitazar, a Newly Identified PPAR Pan-Agonist” (PPAR Research, 2012).
# Columns and labels:
# KKAy mice = assay: Oral treatment of diabetic KKAy mice (glucose, body weight); type: in vivo, mouse
# Source text: Male db/db mice (BKS.Cg-m +/+ LEPR^db) in 6-7 weeks were purchased from The Jackson Laboratory (Bar Harbor, ME, USA). Male KKAy and C57BL/6J mice in 8–10 weeks were obtained from the Institute of Animal Science, Chinese Academy of Medical Sciences and Peking Union Medical College (Beijing, China). Animals were randomly sorted into different treatment groups (8–10 per group). […] Plasma glucose levels were examined at various time points by Accu-Chek Advantage II Glucose Strips (Roche Diagnostics, Basel, Switzerland) and measured by Accu-Chek Advantage (Roche Diagnostics). Animals were sacrificed 24 h after the last dosing and abdominal fat pad, liver, and skeletal muscle from KKAy mice and abdominal fat pad from db/db mice were taken for gene expression analysis.
# Figure 2 In vivo effects on blood glucose control and insulin sensitization of chiglitazar. […] Plasma glucose (a and b) and insulin (c) levels were measured at the indicated time points. […] Data are expressed as mean ± SE.
# Figure 4 Influence in body and abdominal fat pad weights of chiglitazar. […] Changes in body weight were evaluated at the indicated days (b), and the fat pads were weighed from the scarified animals at day 15 (c). ^# P < 0.05 compared with day 0, and *P < 0.05 compared with Ctrl. n = 8 per group for KKAy, and n = 10 per group for db/db. Data are expressed as mean ± SE.
# C2C12 cells = assay: Gene expression by RT-PCR in C2C12 cells; type: cell-based, mouse; settings: 48 h, 10 μM chiglitazar, 50 μM WY14643, 5 μM 2-Bro, compared with rosiglitazone 10 μM
# Source text: cDNAs for human retinoid X receptor (hRXR), PPARα, PPARγ, and PPARδ were obtained by reverse transcriptase polymerase chain reaction (RT-PCR) from human liver or adipose tissues. Amplified cDNAs were cloned into pcDNA3.1 expression vector (Invitrogen, Carlsbad, CA, USA). The integrity and fidelity of all constructs made were verified by DNA sequencing. Luciferase reporter plasmids, ACOX promoter for PPARγ and pHD(X3)-luc for PPARα, were kind gifts of Drs. TM McIntyre (University of Utah, USA) and RA Rachubinski (University of Alberta, Canada), respectively. PPRE-luc for PPARδ was constructed based on the previous report by insertion of the annealed oligonucleotides having four copies of the CYP4A6 PPRE (4 × […]) into the upstream of the luciferase coding sequence in pGL3-promoter vector (Promega, Madison, WI, USA). pCMVβGal was purchased from Clontech (Palo Alto, CA, USA). The mouse 3T3-L1 preadipocyte cell line, skeletal muscle C2C12 cell line, and macrophage RAW267.4 cell line and the human osteosarcoma U2OS cell line were obtained from the American Type Culture Collection (ATCC, Rockville, MD, USA). The human hepatoma SMMC-7721 cell line was obtained from the Cell Culture Center of Chinese Academy of Medical Sciences (Beijing, China). Cell lines were cultured in medium of DMEM (3T3-L1, C2C12, and SMMC-7721), RPMI 1640 (RAW267.4), or McCoy's 5A (U2OS), containing 10% fetal bovine serum (FBS), 50 μg/mL streptomycin, and 50 units/mL penicillin at 37°C in a humidified incubator with 5% CO2.
# Total RNA was extracted from cells or tissues with an RNeasy minikit (Qiagen, Valencia, CA, USA). The first-strand cDNA was synthesized using the oligo(dT) primers, followed by using SuperScript II reverse transcriptase (Invitrogen) according to the manufacturer's instructions. […] PCR products were analyzed by electrophoresis on a 1.5% agarose gel stained with ethidium bromide. […]
# PPARδ = molecular target: T1, PPARδ (Homo sapiens, UniProt Q03181); assay: PPARδ transactivation reporter gene assay in SMMC-7721 cells; type: cell-based; settings: SMMC-7721 cells
# T1 construct: expressed in transfected cells; host or cells: SMMC-7721 or U2OS
# T1 sequence (Q03181 1-441): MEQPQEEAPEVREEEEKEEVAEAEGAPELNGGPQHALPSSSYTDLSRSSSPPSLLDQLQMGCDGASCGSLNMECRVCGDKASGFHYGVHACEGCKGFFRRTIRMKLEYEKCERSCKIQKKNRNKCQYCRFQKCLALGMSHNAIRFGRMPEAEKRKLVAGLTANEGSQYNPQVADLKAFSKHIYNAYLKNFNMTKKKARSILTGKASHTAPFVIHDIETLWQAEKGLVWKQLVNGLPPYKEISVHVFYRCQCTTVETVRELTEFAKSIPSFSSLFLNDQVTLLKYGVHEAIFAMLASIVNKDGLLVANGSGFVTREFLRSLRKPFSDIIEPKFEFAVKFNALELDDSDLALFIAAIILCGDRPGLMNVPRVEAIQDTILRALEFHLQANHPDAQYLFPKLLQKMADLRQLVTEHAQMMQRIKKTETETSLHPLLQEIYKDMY
# T1 sequence (P19793 1-462 partner): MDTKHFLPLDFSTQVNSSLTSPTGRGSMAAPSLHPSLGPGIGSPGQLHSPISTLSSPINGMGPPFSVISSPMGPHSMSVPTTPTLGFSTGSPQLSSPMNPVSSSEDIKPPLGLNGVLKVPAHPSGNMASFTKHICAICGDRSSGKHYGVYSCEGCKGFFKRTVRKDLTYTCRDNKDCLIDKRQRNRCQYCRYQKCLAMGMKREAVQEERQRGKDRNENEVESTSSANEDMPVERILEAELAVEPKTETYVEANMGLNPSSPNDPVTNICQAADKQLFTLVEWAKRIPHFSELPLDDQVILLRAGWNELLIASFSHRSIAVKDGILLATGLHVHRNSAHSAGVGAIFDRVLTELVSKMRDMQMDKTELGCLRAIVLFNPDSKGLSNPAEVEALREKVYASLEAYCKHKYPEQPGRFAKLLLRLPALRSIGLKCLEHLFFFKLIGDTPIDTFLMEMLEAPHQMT
compound,measurement,setting,value
"O=C(c1ccc(F)cc1)c1ccccc1NC(Cc1ccc(OCCn2c3ccccc3c3ccccc32)cc1)C(=O)O (centres unmarked) [Chi, 2-[(2-(4-fluorobenzoyl)phenyl)amino]-3-[4-(2-carbazolylethoxy)-phenyl]-propionic acid]",Body weight,"KKAy mice; 5 and 20 mg kg^−1 oral daily, 12 days, in comparison with rosiglitazone 5 mg kg^−1",did not increase
same,BG (blood glucose) levels,"KKAy mice; oral daily, 5 to 20 mg kg^−1, 12 days",significantly lowered
same,Expression of PPARα and/or PPARδ downstream genes CPT-1a and CPT-1b,C2C12 cells,more significantly upregulated
same,EC50,"PPARδ; 24 h treatment, luciferase reporter, hRXR cotransfected, ia: inactive at 10 μM, read-out: PPARδ EC50",1700 ± 400 nM
same,PPARδ % Max,PPARδ; max response compared with 2-Bro at 10 μM,123%
